Reference: patent US20230243856A1, “IDENTIFYING DIRECT ORAL FACTOR XA INHIBITORS” (Instrumentation Laboratory Company, priority 2022, published 2023)

System: clotting of a test sample, such as whole blood
Assay: low tissue factor clotting assay with a reagent of diluted tissue factor, CaCl2 and polycation heparin inhibitor (polybrene)
Type: biochemical
Settings: for relationship between TTC and concentration in the sample: range shown between 0 and 500 ng/mL, TTC in seconds; for relationship between TTC and concentration in the sample / concentration in the test sample at a measured clotting time of 400 seconds: FIG. 2 / FIG. 3; for concentration in the test sample at a measured clotting time of 400 seconds: read from plot of TTC versus concentration; for plot of TTC versus concentration with 1 IU UFH or 0 IU UFH in the test sample: test sample with 1 IU unfractionated heparin or no heparin, region 400 / 500 of FIG. 4 / FIG. 5
Text: The clotting assay uses a reagent to initiate the clotting of a test sample, such as whole blood or a sample derived from whole blood (e.g., plasma). A low tissue factor assay is an example of a clotting assay. […] The low tissue factor assay monitors the clotting of a mixture of the test sample and the reagent and determines clotting parameters based on that clotting. The TTC parameters can be different on different clinical analyzer systems and for different low tissue factor assays. For example, TTC parameter(s) for low tissue factor assays performed using the ROTEM® sigma and the RQTEM® delta systems by Werfen® include clotting time (CT) (where CT is the latency time from adding reagent to sample until the clot starts to form); TTC parameter(s) for low tissue factor assays performed using the TEG® 6s system by Haemonetics® include reaction time (R) and clotting time (CT); and TTC parameter(s) for low tissue factor assays performed using the Quanta® system by the Hemoscnics® system include dot time (CT). An example of the reagent that may be used in the low tissue factor assay (referred to below as “the assay”) to initiate clotting of the test sample includes the following constituents: a diluted tissue factor (“the tissue factor”), calcium chloride (CaCl2), and a heparin inhibitor. The tissue factor activates the extrinsic pathway; the heparin inhibitor reduces or eliminates the sensitivity of the assay to heparin or at least certain concentrations of heparin in the test sample; and CaCl2 recalcifies the sample as required for blood clotting to occur. An example of a type of heparin inhibitor that may be used in the reagent is polycation. An example of a polycation that may be used in the reagent includes, but is not limited to, polybrene. […] In this example, process 100 includes receiving (100a) a test sample having an unknown anti-Xa DOAC at an unknown concentration. The test sample may be received in a diagnostic testing/clinical analyzer system or a manual testing system. The test sample may be any of the types of test samples described herein. The system performs a low tissue factor assay on the test sample. This includes causing the test sample to contact a reagent such as the example reagents described herein. The test sample mixes (100b) with the reagent. The mixing may be performed automatically or manually by physically moving the test sample and the reagent using a mixing element mechanism, e.g., agitation, flow, or the like. The resulting liquid, which is a mixture of the sample and the reagent, begins to clot. The clotting parameters(s), such as TTC, CFT, and/or amplitudes, of clots formed from the liquid may be measured (100c) by the diagnostic testing/clinical analyzer system or manually. The plots of FIGS. 4 to 6, which are described below, are associated with various experiments using the low tissue factor assay and the example reagents described herein containing the tissue factor, CaCl2, and a heparin inhibitor, such as polybrene or other polycation.

Compound	relationship between TTC and concentration in the sample	concentration in the test sample at a measured clotting time of 400 seconds	plot of TTC versus concentration with 1 IU UFH or 0 IU UFH in the test sample
O=C(NC[C@H]1CN(c2ccc(N3CCOCC3=O)cc2)C(=O)O1)c1ccc(Cl)s1 [rivaroxaban]	linear	about 50 ng/mL	substantially linear
COc1ccc(-n2nc(C(N)=O)c3c2C(=O)N(c2ccc(N4CCCCC4=O)cc2)CC3)cc1 [apixaban]	linear	about 160 ng/mL	substantially linear
